Measurements as given in US20110052688A1, “SOLID DISPERSION COMPOSITION” (priority 2006, published 2011).

Experiment: Solubility of fluvastatin sodium in solvents
Format: physicochemical
Conditions: in water, alcohols and acetone
From the text: In one aspect, the solvent-based process uses a solvent, such as water, non-organic solvents, and organic solvents, to dissolve and intimately disperse or dissolve the drug and the one or more pharmaceutical acceptable polymers. The solvent is later removed by evaporation or other ways while the drug/polymer solid dispersion is collected into a solid dosage form. The use of organic solvents may generate hazardous and toxic wastes to the environment. If possible, water is used for water soluble drugs to prepare a dispersion. Other suitable solvents may be, for example, alcohols and acetone for the use of water-insoluble polymers.

Solubility: soluble
SMILES: CC(C)n1c(/C=C/C(O)CC(O)CC(=O)O)c(-c2ccc(F)cc2)c2ccccc21 (stereo not drawn) [fluvastatin sodium, [R*,S*-(E)]=(±)-7-[3-(4-fluorophenyl)-1-(1-methylethyl)-1Hindol-2-yl]-3,5-dihydroxy-6-heptenoic acid]
